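Five compound concentrations were applied to cells in 96-well plates for 48 hours; endpoints were derived by simple linear interpolation of the resulting dose-response curve. GI50 = concentration required for 50% inhibition of growth.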 Active and inactive are the calls of the source. Rule as the data show it: active = GI50 up to about 1.1 µM and inactive = higher.
What was measured:
Assay in all cases: DTP human tumour cell line panel, 48 h
A549 = tested on: A549
ACHN = tested on: ACHN
EKVX = tested on: EKVX
KM12 = tested on: KM12
MCF7 = tested on: MCF7
MDA-MB-231 = tested on: MDA-MB-231
Malme-3M = tested on: Malme-3M
OVCAR-3 = tested on: OVCAR-3
OVCAR-4 = tested on: OVCAR-4
OVCAR-5 = tested on: OVCAR-5
RPMI-8226 = tested on: RPMI-8226
SF-268 = tested on: SF-268
SF-295 = tested on: SF-295
SF-539 = tested on: SF-539
SK-MEL-28 = tested on: SK-MEL-28
SK-OV-3 = tested on: SK-OV-3
SNB-19 = tested on: SNB-19
SR = tested on: SR
U-251 = tested on: U-251
UACC-257 = tested on: UACC-257

Measured: GI50

COc1cc2oc(=O)cc(C)c2c(OC)c1O
inactive: A549 > 100 µM | ACHN > 100 µM | EKVX > 100 µM | KM12 > 100 µM | MCF7 > 100 µM | MDA-MB-231 > 100 µM | Malme-3M > 100 µM | OVCAR-3 > 100 µM | OVCAR-4 > 100 µM | OVCAR-5 > 100 µM | RPMI-8226 > 100 µM | SF-268 > 100 µM | SF-295 > 100 µM | SF-539 > 100 µM | SK-MEL-28 > 100 µM | SK-OV-3 > 100 µM | SNB-19 > 100 µM | SR > 100 µM | U-251 > 100 µM | UACC-257 > 100 µM

CC(C(N)=O)N(C)C(=O)c1cnc2ccccc2c1 (centres undefined)
inactive: A549 > 100 µM | ACHN > 100 µM | KM12 > 100 µM | MCF7 > 100 µM | MDA-MB-231 > 100 µM | Malme-3M > 100 µM | OVCAR-3 > 100 µM | OVCAR-4 > 100 µM | OVCAR-5 > 100 µM | RPMI-8226 > 100 µM | SF-268 > 10 µM | SF-295 > 100 µM | SF-539 > 100 µM | SK-MEL-28 > 100 µM | SNB-19 > 100 µM | SR > 100 µM | U-251 > 100 µM | UACC-257 > 100 µM

Cn1c2ccccc2c2cc(-c3ccccc3)c3c(c21)C(=O)C=CC3=O
inactive: A549 60.1 µM | ACHN 19.8 µM | EKVX 39.7 µM | KM12 20 µM | MCF7 12.3 µM | MDA-MB-231 23.2 µM | Malme-3M 19.5 µM | OVCAR-3 16.4 µM | OVCAR-4 18.8 µM | OVCAR-5 19 µM | RPMI-8226 2.45 µM | SF-268 28.4 µM | SF-295 24 µM | SF-539 27.3 µM | SK-MEL-28 20.4 µM | SK-OV-3 > 88.1 µM | SNB-19 36.6 µM | SR 3.31 µM | U-251 18.8 µM | UACC-257 21.6 µM

O=C1C(N2CCN(CCOCCO)CC2)=C(Cl)C(=O)c2ncccc21
inactive: A549 > 10 µM | ACHN 19.1 µM | EKVX 19.6 µM | KM12 > 10 µM | MCF7 3.78 µM | MDA-MB-231 19.2 µM | Malme-3M 8.77 µM | OVCAR-3 18.5 µM | OVCAR-4 20.3 µM | OVCAR-5 24.5 µM | RPMI-8226 19 µM | SF-268 20.6 µM | SF-295 > 10 µM | SF-539 21.1 µM | SK-MEL-28 22.2 µM | SK-OV-3 > 10 µM | SNB-19 > 10 µM | SR > 10 µM | U-251 18.7 µM | UACC-257 22 µM

COC(=O)C1=C(O)C(C(=O)OC)[C@]2(O)[C@H](C(=O)OC)[C@H]1C[C@@H](c1c(Cl)cccc1Cl)[C@H]2C(=O)OC (some centres undefined)
inactive: A549 2.23 µM | ACHN 2.19 µM | EKVX 4.25 µM | KM12 2.55 µM | MCF7 3.24 µM | MDA-MB-231 2.96 µM | Malme-3M 2.07 µM | OVCAR-3 2.77 µM | OVCAR-4 3.6 µM | RPMI-8226 1.51 µM | SF-268 3.13 µM | SF-295 2.67 µM | SF-539 1.93 µM | SK-MEL-28 2.24 µM | SK-OV-3 3.96 µM | SNB-19 2.07 µM | SR 1.82 µM | U-251 1.32 µM | UACC-257 2.08 µM

O=C(O)/C=C/c1ccc2c(c1)CC1(Cc3ccccc3C1)C2
inactive: A549 34.8 µM | ACHN 41.6 µM | EKVX > 100 µM | KM12 55.8 µM | MCF7 43.6 µM | MDA-MB-231 > 100 µM | Malme-3M 78.2 µM | OVCAR-3 27.7 µM | OVCAR-4 39 µM | OVCAR-5 > 100 µM | RPMI-8226 96.8 µM | SF-295 36.1 µM | SF-539 96.4 µM | SK-OV-3 > 100 µM | SR 23.2 µM | U-251 49.5 µM | UACC-257 > 100 µM

CSC1=C(C#N)C(=O)N(c2ccc(Cl)cc2)C(=O)C1C#N (centres undefined)
inactive: A549 > 100 µM | ACHN > 100 µM | EKVX > 100 µM | MCF7 > 100 µM | MDA-MB-231 > 100 µM | Malme-3M > 100 µM | OVCAR-3 > 100 µM | OVCAR-4 > 100 µM | OVCAR-5 > 100 µM | RPMI-8226 33.8 µM | SF-268 > 100 µM | SF-295 87.1 µM | SF-539 > 100 µM | SK-MEL-28 > 100 µM | SK-OV-3 > 100 µM | SNB-19 > 100 µM | SR 15.4 µM | U-251 > 100 µM | UACC-257 > 100 µM

O=c1oc2ccccc2n1CCCn1c(=O)oc2ccccc21
inactive: ACHN 92.5 µM | EKVX > 100 µM | KM12 > 100 µM | MCF7 > 100 µM | MDA-MB-231 > 100 µM | Malme-3M > 100 µM | OVCAR-3 > 100 µM | OVCAR-5 > 100 µM | RPMI-8226 > 100 µM | SF-268 > 100 µM | SF-295 > 100 µM | SF-539 > 100 µM | SK-MEL-28 > 100 µM | SK-OV-3 > 100 µM | SNB-19 > 100 µM | SR > 100 µM | U-251 47.9 µM | UACC-257 > 100 µM

CC(C)CC(NC(=O)C(C)(CI)Cc1ccccc1)C(=O)Nc1ccccc1 (centres undefined)
inactive: A549 > 100 µM | ACHN > 100 µM | EKVX > 100 µM | KM12 > 100 µM | MCF7 > 100 µM | MDA-MB-231 > 100 µM | Malme-3M > 100 µM | OVCAR-3 > 100 µM | OVCAR-4 > 100 µM | OVCAR-5 > 100 µM | RPMI-8226 > 100 µM | SF-295 > 100 µM | SF-539 > 100 µM | SK-OV-3 > 100 µM | SNB-19 > 100 µM | SR 22.1 µM | U-251 > 100 µM | UACC-257 > 100 µM

COC(=O)C(Cc1ccccc1)NC(=O)CSc1nnc(COc2ccc(Cl)cc2)n1-c1ccccc1 (centres undefined)
inactive: A549 39.4 µM | ACHN 16.4 µM | KM12 37.7 µM | MCF7 23.4 µM | MDA-MB-231 18.6 µM | Malme-3M 19.7 µM | OVCAR-4 21.4 µM | OVCAR-5 24.8 µM | RPMI-8226 20.5 µM | SF-268 25.7 µM | SF-539 22.4 µM | SK-MEL-28 27.2 µM | SK-OV-3 15.8 µM | SNB-19 49.9 µM | SR 5.41 µM | U-251 18.5 µM | UACC-257 13.1 µM

CC(C)(C)c1ccccc1N1C(=O)c2ccc3c4c(ccc(c24)C1=O)N(c1ccccc1C(C)(C)C)C3=O
inactive: A549 > 100 µM | ACHN > 100 µM | EKVX 14.8 µM | KM12 > 100 µM | MCF7 > 100 µM | MDA-MB-231 > 100 µM | OVCAR-3 > 100 µM | OVCAR-4 > 100 µM | OVCAR-5 > 100 µM | RPMI-8226 > 100 µM | SF-268 > 100 µM | SF-295 71.3 µM | SF-539 > 100 µM | SK-MEL-28 > 100 µM | SK-OV-3 > 100 µM | SNB-19 > 100 µM | SR > 100 µM | U-251 > 100 µM | UACC-257 > 100 µM

C=CC1ON(C)CCc2cc(OC)c(OC)cc21 (centres undefined)
inactive: A549 > 100 µM | ACHN > 100 µM | EKVX > 100 µM | KM12 > 100 µM | MCF7 1.63 µM | MDA-MB-231 > 100 µM | Malme-3M > 100 µM | OVCAR-3 > 100 µM | OVCAR-5 > 100 µM | RPMI-8226 > 100 µM | SF-268 39.6 µM | SF-295 > 100 µM | SF-539 > 100 µM | SK-MEL-28 > 100 µM | SNB-19 > 100 µM | SR > 100 µM | U-251 > 100 µM | UACC-257 > 100 µM

CO[C@H](C)[C@](O)(C(=O)OCC1=CCN2CC[C@@H](O)[C@H]12)C(C)C
inactive: A549 > 100 µM | ACHN 73.3 µM | EKVX > 100 µM | KM12 > 100 µM | MCF7 > 100 µM | MDA-MB-231 > 100 µM | OVCAR-3 > 100 µM | OVCAR-4 > 100 µM | OVCAR-5 > 100 µM | RPMI-8226 > 100 µM | SF-268 > 100 µM | SF-295 > 100 µM | SF-539 > 100 µM | SK-MEL-28 > 100 µM | SK-OV-3 > 100 µM | SNB-19 > 100 µM | SR > 100 µM | U-251 > 100 µM | UACC-257 > 100 µM

c1c[nH]c(-c2cccc3nsnc23)c1
inactive: A549 72.3 µM | ACHN 71.9 µM | EKVX 33 µM | KM12 30.8 µM | MCF7 6.7 µM | MDA-MB-231 99.3 µM | Malme-3M > 100 µM | OVCAR-4 38.8 µM | OVCAR-5 31.8 µM | RPMI-8226 57.7 µM | SF-268 > 100 µM | SF-295 > 100 µM | SF-539 > 100 µM | SK-MEL-28 > 100 µM | SK-OV-3 > 100 µM | SNB-19 > 100 µM | SR 25.1 µM | U-251 > 100 µM | UACC-257 > 100 µM

CCCn1c(SC)nc(COC(=O)NC)c1COC(=O)NC
inactive: A549 > 100 µM | ACHN > 100 µM | EKVX > 100 µM | KM12 > 100 µM | MCF7 > 100 µM | MDA-MB-231 > 100 µM | OVCAR-3 > 100 µM | OVCAR-4 > 100 µM | OVCAR-5 > 100 µM | RPMI-8226 > 100 µM | SF-268 > 100 µM | SF-295 > 100 µM | SF-539 > 100 µM | SK-MEL-28 > 100 µM | SK-OV-3 > 100 µM | SNB-19 > 100 µM | SR > 100 µM | UACC-257 > 100 µM

Reference: ChEMBL document CHEMBL1201862, “PubChem BioAssay data set” (2004)
